Assay results: patent US4382939A, “3-[2-(Mono-and dialkylamino)propyl]-1,2,3,4-tetrahydro-5H-[1]benzopyrano[3,4-C]pyridin- 5-ones useful for treating bronchospastic diseases” (Warner Lambert Company, priority 1982, dated 1983)
Structures can show the parent of a compound that is named as a salt.

test system: collapse on exposure to an aerosol of methacholine; assay: Anticholinergic test: prolongation of collapse time in conscious guinea pigs exposed to an aerosol of methacholine; type: in vivo; details: guinea pig, 25 mg/kg intraperitoneally; 10 minutes methacholine aerosol; Control 1.9 to 2.0
Experimental: The compounds of the invention display anticholinergic properties when tested by the following procedure: Conscious guinea pigs, six at a time, are put into a sealed chamber and exposed for 10 minutes to an aerosol of methacholine. Untreated animals or those treated with vehicle will collapse in 1.9±0.1 minutes. Groups of animals are injected intraperitoneally with 25 mg/kg of test compound and exposed in the chamber under the same conditions. Compounds which prolong the collapse time past that of the control animals are considered active.

CCN(C)C(C)CN1CCc2c(c(=O)oc3c(OC)c(OC)ccc23)C1.Cl.Cl (stereo not shown) [H MeO MeO Me Et, 3-[2-(Ethylmethylamino)propyl]-1,2,3,4-tetrahydro-7,8-dimethoxy-5H-[1]benzopyrano[3,4-c]pyridin-5-one dihydrochloride] and COc1ccc2c3c(c(=O)oc2c1OC)CN(CC(C)N(C)C)CC3.Cl.Cl (stereo not shown) [H MeO MeO Me Me, 3-[2-(Dimethylamino)propyl]-1,2,3,4-tetrahydro-7,8-dimethoxy-5H-[1]benzopyrano[3,4-c]pyridin-5-one dihydrochloride] are within 1.5-fold of each other in “(Minutes Protection)” value: 5.0 min for the first, 5.5 min for the second.

CCCCN(C)C(C)CN1CCc2c(c(=O)oc3cc(C)ccc23)C1 (stereo not shown) [H Me H Me n-Bu, 3-[2-(Butylmethylamino)propyl]-1,2,3,4-tetrahydro-8-methyl-5H-[1]benzopyrano[3,4-c]pyridin-5-one] and CCCN(C)C(C)CN1CCc2c(c(=O)oc3cc(C)ccc23)C1 (stereo not shown) [H Me H Me n-Pr, 1,2,3,4-Tetrahydro-8-methyl-3-[2-(methylpropylamino)propyl]-5H-[1]benzopyrano[3,4-c]pyridin-5-one] are within 1.5-fold of each other in “(Minutes Protection)” value: 7.8 min for the first, 5.4 min for the second.

CNC(C)CN1CCc2c(c(=O)oc3cc(OC)ccc23)C1 (stereo not shown) [H MeO H Me H, 1,2,3,4-Tetrahydro-8-methoxy-3-[2-(methylamino)propyl]-5H-[1]benzopyrano[3,4-c]pyridin-5-one] and CCNC(C)CN1CCc2c(c(=O)oc3cc(OC)ccc23)C1 (stereo not shown) [H MeO H Et H, 3-[2-(Ethylamino)propyl]-1,2,3,4-tetrahydro-8-methoxy-5H-[1]benzopyrano[3,4-c]pyridin-5-one] are within 1.5-fold of each other in “(Minutes Protection)” value: 8.6 min for the first, 7.5 min for the second.

CCN(CC)C(C)CN1CCc2c(c(=O)oc3cc(OC)ccc23)C1 (stereo not shown) [H MeO H Et Et, 3-[2-(Diethylamino)propyl]-1,2,3,4-tetrahydro-8-methoxy-5H-[1]benzopyrano[3,4-c]pyridin-5-one] and CCCN(CC)C(C)CN1CCc2c(c(=O)oc3cc(OC)ccc23)C1 (stereo not shown) [H MeO H Et n-Pr, 3-[2-(Ethylpropylamino)propyl]-1,2,3,4-tetrahydro-8-methoxy-5H-[1]benzopyrano[3,4-c]pyridin-5-one] are the same in “(Minutes Protection)” value: 10.0 min for the first, 10.0 min for the second.

CCCN(C)C(C)CN1CCc2c(c(=O)oc3cc(OC)ccc23)C1 (stereo not shown) [H MeO H Me n-Pr, 1,2,3,4-Tetrahydro-8-methoxy-3[2-(methylpropylamino)propyl]-5H-[1]benzopyrano[3,4-c]pyridin-5-one] and CCN(C)C(C)CN1CCc2c(c(=O)oc3cc(OC)ccc23)C1 (stereo not shown) [H MeO H Me Et, 3-[2-(Ethylmethylamino)propyl]-1,2,3,4-tetrahydro-8-methoxy-5H-[1]benzopyrano[3,4-c]pyridin-5-one] are within 1.5-fold of each other in “(Minutes Protection)” value: 10.0 min for the first, 9.1 min for the second.

Compared with CCCN(C)C(C)CN1CCc2c(c(=O)oc3cc(OC)c(OC)cc23)C1 (stereo not shown) [MeO MeO H Me n-Pr, 1,2,3,4-Tetrahydro-8,9-dimethoxy-3-[2-(methylpropylamino)propyl]-5H-[1]benzopyrano[3,4-c]pyridin-5-one], CCN(C)C(C)CN1CCc2c(c(=O)oc3cc(OC)c(OC)cc23)C1.Cl.Cl (stereo not shown) [MeO MeO H Me Et, 3-[2-(Ethylmethylamino)propyl]-1,2,3,4-tetrahydro-8,9-dimethoxy-5H-[1]benzopyrano[3,4-c]pyridin-5-one dihydrochloride] is 2.4-fold higher in “(Minutes Protection)” value: 2.5 min for the first, 6.0 min for the second.

CCNC(C)CN1CCc2c(c(=O)oc3cc(C)c(Cl)cc23)C1 (stereo not shown) [Cl Me H Et H, 9-Chloro-3-[2-(ethylamino)propyl]-1,2,3,4-tetrahydro-8-methyl-5H-[1]benzopyrano[3,4-c]pyridin-5-one] and CCN(CC)C(C)CN1CCc2c(c(=O)oc3cc(C)c(Cl)cc23)C1 (stereo not shown) [Cl Me H Et Et, 9-Chloro-3-[2-(diethylamino)propyl]-1,2,3,4-tetrahydro-8-methyl-5H-[1]benzopyrano[3,4-c]pyridin-5-one] are within 1.5-fold of each other in “(Minutes Protection)” value: 3.1 min for the first, 3.4 min for the second.

CCN(CC)C(C)CN1CCc2c(c(=O)oc3c(OC)c(OC)ccc23)C1 (stereo not shown) [H MeO MeO Et Et, 3-[2-(Diethylamino)propyl]-1,2,3,4-tetrahydro-7,8-dimethoxy-5H-[1]benzopyrano[3,4-c]pyridin-5-one] and CCNC(C)CN1CCc2c(c(=O)oc3c(OC)c(OC)ccc23)C1 (stereo not shown) [H MeO MeO Et H, 3-[2-(Ethylamino)propyl]-1,2,3,4-tetrahydro-7,8-dimethoxy-5H-[1] benzopyrano[3,4-c]pyridin-5-one] are within 1.5-fold of each other in “(Minutes Protection)” value: 7.6 min for the first, 9.1 min for the second.

CCCN(CC)C(C)CN1CCc2c(c(=O)oc3cc(OC)c(OC)cc23)C1 (stereo not shown) [MeO MeO H Et n-Pr, 3-[2-(Ethylpropylamino)propyl]-1,2,3,4-tetrahydro-8,9-dimethoxy-5H-[1]benzopyrano[3,4-c]pyridin-5-one] and CCCCN(CC)C(C)CN1CCc2c(c(=O)oc3cc(OC)c(OC)cc23)C1 (stereo not shown) [MeO MeO H Et Bu, 3-[2-(Butylethylamino)propyl]-1,2,3,4-tetrahydro-8,9-dimethoxy-5H-[1]benzopyrano[3,4-c]pyridin-5-one] are the same in “(Minutes Protection)” value: 3.7 min for the first, 3.7 min for the second.

First: CC(CN1CCc2c(c(=O)oc3cc4c(cc23)OCO4)C1)N(C)C (stereo not shown) [OCH2O H Me Me, 3-[2-(Dimethylamino)propyl]-1,2,3,4-tetrahydro-5H-[1,3]benzodioxolo]5',6':5,6]pyrano[3,4-c]pyridin-5-one dihydrochloride]
Second: Cc1cc2oc(=O)c3c(c2cc1C)CCN(CC(C)N(C)C)C3 (stereo not shown) [Me Me H Me Me, 3-[2-(Dimethylamino)propyl]-1,2,3,4-tetrahydro-8,9-dimethyl-5H-[1]benzopyrano[3,4-c]pyridin-5-one]
The “(Minutes Protection)” value of the first is 2.1-fold lower: 2.3 min for the first, 4.8 min for the second.

CCCN(CC)C(C)CN1CCc2c(c(=O)oc3cc(C)ccc23)C1 (stereo not shown) [H Me H Et n-Pr, 3-[2-(Ethylpropylamino)propyl]-1,2,3,4-tetrahydro-8-methyl-5H-[1]benzopyrano[3,4-c]pyridin-5-one] and CCCN(CC)C(C)CN1CCc2c(c(=O)oc3ccccc23)C1 (stereo not shown) [H H H Et Pr, 3-[2-(Ethylpropylamino)propyl]-1,2,3,4-tetrahydro-5H-[1]benzopyrano[3,4-c]pyridin-5-one] are within 1.5-fold of each other in “(Minutes Protection)” value: 7.6 min for the first, 6.4 min for the second.

First: CC(CN1CCc2c(c(=O)oc3c2ccc2ccccc23)C1)N(C)C (stereo not shown) [H CHCHCHCH Me Me, 2-[2-(Dimethylamino)propyl]-1,2,3,4-tetrahydro-12H-naphtho-[2',1':5,6]pyrano[3,4-c]pyridin-12-one dihydrochlorine]
Second: COc1ccc2c3c(c(=O)oc2c1)CN(CC(C)N(C)C)CC3.Cl.Cl (stereo not shown) [H MeO H Me Me, 3-[2-(Dimethylamino)propyl]-1,2,3,4-tetrahydro-8-methoxy-5H-[1]benzopyrano[3,4-c]pyridin-5-one dihydrochloride]
The “(Minutes Protection)” value of the first is 1.7-fold lower: 5.9 min for the first, 10.0 min for the second.

For CCNC(C)CN1CCc2c(c(=O)oc3cc(C)ccc23)C1 (stereo not shown) [H Me H Et H, 3-[2-(Ethylamine)propyl]-1,2,3,4-tetrahydro-8-methyl-5H-[1]benzopyrano[3,4-c]pyridin-5-one], the “(Minutes Protection)” value was 10.0 min.
